24 compounds from patent US12673961B2 (Agios Pharmaceuticals, Inc., priority 2022, dated 2026) can be followed below.

Where only a bound is given, the exact number is not on record here.

This experiment concerns the target T1, human PAH with the R408W mutation (Homo sapiens, UniProt P00439, R408W).
T1 construct: expressed in transfected cells
T1 sequence (P00439 1-452 R408W): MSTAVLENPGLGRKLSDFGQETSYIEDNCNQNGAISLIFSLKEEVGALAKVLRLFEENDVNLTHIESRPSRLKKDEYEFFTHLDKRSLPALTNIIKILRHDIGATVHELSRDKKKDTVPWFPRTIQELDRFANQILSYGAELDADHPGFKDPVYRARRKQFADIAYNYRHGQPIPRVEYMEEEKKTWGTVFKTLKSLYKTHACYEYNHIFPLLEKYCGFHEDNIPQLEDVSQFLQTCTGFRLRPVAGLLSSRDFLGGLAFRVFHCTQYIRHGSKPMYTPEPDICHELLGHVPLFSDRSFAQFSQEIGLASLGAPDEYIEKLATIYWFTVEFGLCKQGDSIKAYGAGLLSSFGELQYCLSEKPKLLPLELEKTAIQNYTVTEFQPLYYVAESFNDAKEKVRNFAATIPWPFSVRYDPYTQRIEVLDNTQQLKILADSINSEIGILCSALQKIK
Nature of the experiment: Cell Based Phenylalanine Flux Assay.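 Note: Ten-point dose curve from 2-fold serial dilutions, run in duplicate at 0.5% DMSO final, tracer step used 20 µM sepiapterin and 800 µM labeled phenylalanine.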 The note with it: A375 cells expressing human R408W PAH; 24 hrs with compound, then sepiapterin and 13C9,15N-Phenylalanine for 4 hours; 13C-Tyrosine by LC-MS; average where tested multiple times; read-out: AC50.
Method: Compounds were resuspended in DMSO, and 2-fold serial dilutions were performed to generate a 10-point dose curve. Compounds were added to plated cells in a total volume of 100 μl, and a final DMSO concentration of 0.5%. Each compound was tested in duplicate. Following compound addition, cells were placed in a 5% CO2, 37° C. tissue culture incubator for 24 hrs. […] 20 μM sepiapterin and 800 μM 13C9,15N-Phenylalanine were added. After 4 hours, cell media was removed. An aliquot of 10 μl of cell media was combined with 200 μl of extraction buffer (80% acetonitrile/20% H2O) for each well. Determination of ^13C-Tyrosine concentration was assessed by liquid chromatography mass spectrometry.
Where a compound was tested multiple times, the average value of the tests is reported.
For orientation: AC50 means the midpoint of the concentration-response curve, whichever way the signal moves. Consider `Cc1cccn2nc([C@H]3c4nc[nH]c4CCN3C(=O)c3nnc(-c4ccn(C(F)(F)F)n4)o3)cc12` [Example 1479, (R)-(4-(4-methylpyrazolo [1,5-a]pyridin-2-yl)-6,7-dihydro-1H-imidazo[4,5-c]pyridin-5(4H)-yl)(5-(1-(trifluoromethyl)-1H-pyrazol-3-yl)-1,3,4-oxadiazol-2-yl)methanone], for which the AC50 fell in the range of 1000 to 5000 nM.
To `O=C(c1nnc(-c2ccn(C(F)(F)F)n2)o1)N1CCc2[nH]cnc2[C@H]1c1cc2c(F)cccn2n1` [Example 1482, (S)-(4-(4-fluoropyrazolo[1,5-a]pyridin-2-yl)-6,7-dihydro-1H-imidazo[4,5-c]pyridin-5(4H)-yl)(5-(1-(trifluoromethyl)-1H-pyrazol-3-yl)-1,3,4-oxadiazol-2-yl)methanone] belongs under 500 nM; to `O=C(c1nnc(-c2ccn(C(F)(F)F)n2)o1)N1CCc2[nH]cnc2[C@@H]1c1cc2c(F)cccn2n1` [Example 1483, (R)-(4-(4-fluoropyrazolo [1,5-a]pyridin-2-yl)-6,7-dihydro-1H-imidazo[4,5-c]pyridin-5(4H)-yl)(5-(1-(trifluoromethyl)-1H-pyrazol-3-yl)-1,3,4-oxadiazol-2-yl)methanone], 1000 to 5000 nM.
Regarding `CC(C)c1nnc(C(=O)N2CCc3[nH]cnc3[C@H]2c2cc3c(Cl)cccn3n2)o1` [Example 1484, (S)-(4-(4-chloropyrazolo [1,5-a]pyridin-2-yl)-6,7-dihydro-1H-imidazo[4,5-c]pyridin-5(4H)-yl)(5-isopropyl-1,3,4-oxadiazol-2-yl)methanone], the AC50 was under 500 nM.
Next, `CC(C)c1nnc(C(=O)N2CCc3[nH]cnc3[C@@H]2c2cc3cccc(Cl)n3n2)o1` [Example 1489, (R)-(4-(7-chloropyrazolo [1,5-a]pyridin-2-yl)-6,7-dihydro-1H-imidazo[4,5-c]pyridin-5(4H)-yl)(5-isopropyl-1,3,4-oxadiazol-2-yl)methanone]: 1000 to 5000 nM; `Cc1cccc2cc([C@@H]3c4nc[nH]c4CCN3C(=O)c3nnc(C(C)C)o3)nn12` [Example 1490, (S)-(5-isopropyl-1,3,4-oxadiazol-2-yl)(4-(7-methylpyrazolo[1,5-a]pyridin-2-yl)-6,7-dihydro-1H-imidazo[4,5-c]pyridin-5(4H)-yl)methanone]: 500 to 1000 nM; `O=C(c1nnc(-c2cnn(C(F)(F)F)c2)o1)N1CCc2[nH]cnc2[C@H]1c1cc2cccc(C(F)F)n2n1` [Example 1502, (S)-(4-(7-(difluoromethyl)pyrazolo[1,5-a]pyridin-2-yl)-6,7-dihydro-1H-imidazo [4,5-c]pyridin-5(4H)-yl)(5-(1-(trifluoromethyl)-1H-pyrazol-4-yl)-1,3,4-oxadiazol-2-yl)methanone]: 500 to 1000 nM.
Next, `O=C(c1nnc(-c2cnn(C(F)(F)F)c2)o1)N1CCc2[nH]cnc2[C@@H]1c1cc2c(Cl)cccn2n1` [Example 1505]: over 5000 nM; `O=C(c1nnc(-c2ccn(C(F)(F)F)n2)o1)N1CCc2[nH]cnc2[C@H]1c1cc2cccc(Cl)n2n1` [Example 1508, (S)-(4-(7-chloropyrazolo [1,5-a]pyridin-2-yl)-6,7-dihydro-1H-imidazo[4,5-c]pyridin-5(4H)-yl)(5-(1-(trifluoromethyl)-1H-pyrazol-3-yl)-1,3,4-oxadiazol-2-yl)methanone]: under 500 nM; `O=C(c1nnc(-c2ccn(C(F)(F)F)n2)o1)N1CCc2[nH]cnc2[C@@H]1c1cc2cccc(Cl)n2n1` [Example 1509, (R)-(4-(7-chloropyrazolo [1,5-a]pyridin-2-yl)-6,7-dihydro-1H-imidazo[4,5-c]pyridin-5(4H)-yl)(5-(1-(trifluoromethyl)-1H-pyrazol-3-yl)-1,3,4-oxadiazol-2-yl)methanone]: over 5000 nM.
Consider `Cc1cccc2cc([C@@H]3c4nc[nH]c4CCN3C(=O)c3nnc(-c4ccn(C(F)(F)F)n4)o3)nn12` [Example 1510, (S)-(4-(7-methylpyrazolo [1,5-a]pyridin-2-yl)-6,7-dihydro-1H-imidazo[4,5-c]pyridin-5(4H)-yl)(5-(1-(trifluoromethyl)-1H-pyrazol-3-yl)-1,3,4-oxadiazol-2-yl)methanone], for which the AC50 was in the range of 500 to 1000 nM.
Next, `Cc1cccc2cc([C@H]3c4nc[nH]c4CCN3C(=O)c3nnc(-c4ccn(C(F)(F)F)n4)o3)nn12` [Example 1511, (R)-(4-(7-methylpyrazolo [1,5-a]pyridin-2-yl)-6,7-dihydro-1H-imidazo[4,5-c]pyridin-5(4H)-yl)(5-(1-(trifluoromethyl)-1H-pyrazol-3-yl)-1,3,4-oxadiazol-2-yl)methanone]: 1000 to 5000 nM; `O=C(c1nnc(C2CCC2)o1)N1CCc2[nH]cnc2[C@@H]1c1cc2ccccn2n1` [Example 1515, (R)-(5-cyclobutyl-1,3,4-oxadiazol-2-yl)(4-(pyrazolo[1,5-a]pyridin-2-yl)-6,7-dihydro-1H-imidazo[4,5-c]pyridin-5(4H)-yl)methanone]: over 5000 nM.
For the compound `O=C(c1nnc(C2CCC2)o1)N1CCc2[nH]cnc2[C@H]1c1cc2c(Cl)cccn2n1` [Example 1517, (S)-(4-(4-chloropyrazolo [1,5-a]pyridin-2-yl)-6,7-dihydro-1H-imidazo[4,5-c]pyridin-5(4H)-yl)(5-cyclobutyl-1,3,4-oxadiazol-2-yl)methanone], the AC50 is under 500 nM.
Next, `O=C(c1nnc(C2CCC2)o1)N1CCc2[nH]cnc2[C@H]1c1cc2c(C(F)(F)F)cccn2n1` [Example 1519, (S)-(5-cyclobutyl-1,3,4-oxadiazol-2-yl)(4-(4-(trifluoromethyl)pyrazolo [1,5-a]pyridin-2-yl)-6,7-dihydro-1H-imidazo[4,5-c]pyridin-5(4H)-yl)methanone]: under 500 nM.
Consider `O=C(c1nnc(C2CCC2)o1)N1CCc2[nH]cnc2[C@H]1c1cc2c(C(F)F)cccn2n1` [Example 1520, (S)-(5-cyclobutyl-1,3,4-oxadiazol-2-yl)(4-(4-(difluoromethyl)pyrazolo [1,5-a]pyridin-2-yl)-6,7-dihydro-1H-imidazo[4,5-c]pyridin-5(4H)-yl)methanone], for which the AC50 is under 500 nM.
`Cn1nccc1-c1nnc(C(=O)N2CCc3[nH]cnc3[C@H]2c2cc3cccc(F)n3n2)o1` [Example 1526, (S)-(4-(7-fluoropyrazolo[1,5-a]pyridin-2-yl)-6,7-dihydro-1H-imidazo[4,5-c]pyridin-5(4H)-yl)(5-(1-methyl-1H-pyrazol-5-yl)-1,3,4-oxadiazol-2-yl)methanone]: the AC50 fell in the range of 500 to 1000 nM.
Next, `Cc1cnn(C)c1-c1nnc(C(=O)N2CCc3[nH]cnc3[C@@H]2c2cc3cccc(F)n3n2)o1` [Example 1529, (R)-(5-(1,4-dimethyl-1H-pyrazol-5-yl)-1,3,4-oxadiazol-2-yl)(4-(7-fluoropyrazolo [1,5-a]pyridin-2-yl)-6,7-dihydro-1H-imidazo[4,5-c]pyridin-5(4H)-yl)methanone]: 1000 to 5000 nM.
To `Cn1nccc1-c1nnc(C(=O)N2CCc3[nH]cnc3[C@@H]2c2cc3c(C(F)F)cccn3n2)o1` [Example 1533, (R)-(4-(4-(difluoromethyl)pyrazolo[1,5-a]pyridin-2-yl)-6,7-dihydro-1H-imidazo [4,5-c]pyridin-5(4H)-yl)(5-(1-methyl-1H-pyrazol-5-yl)-1,3,4-oxadiazol-2-yl)methanone] belongs over 5000 nM; to `O=C(c1nnc(-c2cnccn2)o1)N1CCc2[nH]cnc2[C@H]1c1cc2cccc(C(F)F)n2n1` [Example 1535, (S)-(4-(7-(difluoromethyl)pyrazolo[1,5-a]pyridin-2-yl)-6,7-dihydro-1H-imidazo[4,5-c]pyridin-5(4H)-yl)(5-(pyrazin-2-yl)-1,3,4-oxadiazol-2-yl)methanone], 500 to 1000 nM.
Next, `Cc1cc(-c2nnc(C(=O)N3CCc4[nH]cnc4[C@@H]3c3cc4cccc(C(F)F)n4n3)o2)nn1C` [Example 1536, (R)-(4-(7-(difluoromethyl)pyrazolo[1,5-a]pyridin-2-yl)-6,7-dihydro-1H-imidazo[4,5-c]pyridin-5(4H)-yl)(5-(1,5-dimethyl-1H-pyrazol-3-yl)-1,3,4-oxadiazol-2-yl)methanone]: over 5000 nM.
For `O=C(c1nnc(-c2cnn(C(F)(F)F)c2)o1)N1CCc2[nH]cnc2[C@@H]1c1cc2c(C(F)(F)F)cccn2n1` [Example 1539, (R)-(5-(1-(trifluoromethyl)-1H-pyrazol-4-yl)-1,3,4-oxadiazol-2-yl)(4-(4-(trifluoromethyl)pyrazolo[1,5-a]pyridin-2-yl)-6,7-dihydro-1H-imidazo[4,5-c]pyridin-5(4H)-yl)methanone], the AC50 was over 5000 nM.
In the case of `O=C(c1nnc(-c2cnn(C(F)(F)F)c2)o1)N1CCc2[nH]cnc2[C@@H]1c1cc2c(F)cccn2n1` [Example 1541, (R)-(4-(4-fluoropyrazolo [1,5-a]pyridin-2-yl)-6,7-dihydro-1H-imidazo[4,5-c]pyridin-5(4H)-yl)(5-(1-(trifluoromethyl)-1H-pyrazol-4-yl)-1,3,4-oxadiazol-2-yl)methanone], the AC50 fell in the range of 1000 to 5000 nM.
To `O=C(c1cnn2cc(-c3ccccn3)ccc12)N1CCc2[nH]cnc2[C@H]1c1cc2c(C(F)(F)F)cccn2n1` [Example 1550, (S)-(6-(pyridin-2-yl)pyrazolo [1,5-a]pyridin-3-yl)(4-(4-(trifluoromethyl)pyrazolo [1,5-a]pyridin-2-yl)-6,7-dihydro-1H-imidazo[4,5-c]pyridin-5(4H)-yl)methanone] belongs under 500 nM.
